In article PMC9397875 (PLoS ONE, 2022):

How the values were obtained:
[1] = tested on: MCF-7 hormone receptor positive breast cancer cells; test: Resazurin cytotoxicity assay, MCF-7; assay type: cell-based; settings: for IC50: Homo sapiens, MCF7, MCF-7 cells, 96 hours treatment, resazurin, read-out: MCF-7 IC50 (μM) ± SD; for SI (selectivity index) for MCF-7: IC50 against MCF12A cells ÷ IC50 against MCF-7 cells
Procedure: (§1) Cytotoxicity and the IC50 of the synthetic compounds were determined using the resazurin assay, [12, 13]. The cancer cells MCF-7 hormone receptor positive breast cancer [estrogen receptor (ER)^+, progesterone receptor (PR)^+, human epidermal growth factor-2 (HER-2)^-; ATCC: HTB-22), HCC70 triple negative breast cancer (TNBC, ER^-, PR^-, HER-2^-; ATCC: CRL-2315) and a non-tumorigenic breast epithelial cell line MCF-12A (ATCC: CRL-10782), were seeded at a density of 5000 cells/well in a 96 well plate and were allowed to adhere overnight at 37°C in a 9% CO2 incubator. The cells were then treated with the synthetic compounds at a concentration range from 15.63–500.00 μM or with a vehicle control [0.2% (v/v) DMSO] for 96 hours at 37°C in a 9% CO2 incubator. Thereafter, […] of resazurin solution was added and the cells were incubated for 2–4 hours at 37°C in a 9% CO2 incubator. The fluorescence was then measured on a Spectramax spectrophotometer with excitation and emission wavelength set at 560 and 590 nm respectively. The experiment was done in technical triplicate and the data were analyzed using GraphPad Prism Inc, (USA) with half-maximal inhibitory concentration (IC50 values) determined by non-linear regression. Selectivity index values for the compounds were calculated as follows: (IC50 of compound against MCF12A cells)÷(IC50 of compound against breast cancer cells) where a SI > 1 is indicative of selective toxicity towards cancer cells vs non-cancerous cells.
(§2) The HCC70 (ATCC-CRL-2315) basal triple-negative breast cancer (TNBC) cell lines and MCF-7 luminal A cancer cell line (ATCC-HTB-22) were purchased from the American Type Culture Collection (ATCC, USA). The MCF-12A breast epithelial cell line (ATCC-CRL-10782) was a gift from Dr Anna-Mart Engelbrecht (Department of Physiology, Stellenbosch University, South Africa).

[2] = tested on: HCC70 triple negative breast cancer cells; test: Resazurin cytotoxicity assay, HCC70; assay type: cell-based; settings: for IC50: Homo sapiens, HCC70 cells, 96 hours treatment, resazurin, read-out: HCC70 IC50 (μM) ± SD; for SI (selectivity index) for HCC70: IC50 against MCF12A cells ÷ IC50 against HCC70 cells
Procedure: as §1, §2

[3] = tested on: MCF-12A non-tumorigenic breast epithelial cell line; test: Resazurin cytotoxicity assay, MCF-12A; assay type: cell-based; settings: Homo sapiens, MCF-12A cells, 96 hours treatment, read-out: MCF-12A IC50 (μM) ± SD
Procedure: as §1, §2

[4] = tested on: colon cancer cells (SW-620); design: method as in ref 3 = [3]; doi:10.1039/C2MD20172K; 3 Woods JR , Mo H , Bieberich AA , Alavanja T , Colby DA . Amino derivatives of the sesquiterpene lactone class of natural products as prodrugs . Med.Chem.Comm . 2013; 4 ( 1 ): 27 – 33 . doi: 10.1039; settings: antiproliferative; cited from earlier work
[5] = tested on: colorectal cancer cells (SW-620); design: method as in PMID 16766184; settings: cytotoxicity; cited from earlier work
leukemia cells (K562) = tested on: leukemia cells (K562); design: method as in ref 3, 19 = [3]; doi:10.1039/C2MD20172K; 3 Woods JR , Mo H , Bieberich AA , Alavanja T , Colby DA . Amino derivatives of the sesquiterpene lactone class of natural products as prodrugs . Med.Chem.Comm . 2013; 4 ( 1 ): 27 – 33 . doi: 10.1039 || [19]; 19 Unde NR , Hiremath SV , Kulkarni GH , Kelkar GR . Amino derivatives of sesquiterpenes lactone class of natural products prodrugs . Tetrahedron Lett . 1968; 9 : 4861 – 4862 .; settings: antiproliferative; cited from earlier work

| Compound | IC50 [1] [µM] | SI (selectivity index) for MCF-7 [1] | IC50 [2] [µM] | SI (selectivity index) for HCC70 [2] | IC50 [3] [µM] | GI50 [4] [µM] | IC50 [5] [µM] | GI50 (leukemia cells (K562)) [µM] |
| --- | --- | --- | --- | --- | --- | --- | --- | --- |
| C=C1CC[C@@H]2C(=C)CC[C@H]3[C@@H](OC(=O)[C@H]3CN(CC)CC)[C@H]12 (relative stereo) [DHLC-2, (*3aS,6aR,9aR,9bS*)-3-[(diethylamino)methyl]decahydro-6,9-bis(methylene)azuleno[4,5-b]furan-2(3H)-one] | 0.07 | SI = 126.86 | 1.48 ± 1.49 | SI = 6.00 | 8.88 ± 1.1 |  |  |  |
| CC[C@@]1(O)C(=O)OCc2c1cc1n(c2=O)Cc2cc3ccccc3nc2-1 [Camptothecin, reference compound] | 104 ± 9.92 |  | 83.2 ± 1.08 |  | 104.2 ± 1.04 |  |  |  |
| C=C1CC[C@H]2C(=C)CC[C@H]3C(=C)C(=O)O[C@@H]3[C@@H]12 [DHLC, Dehydrocostus lactone, reference compound] | 24.7 ± 1.25 |  | 1.11 ± 1.31 | SI = 0.06 | 0.07 ± 0.07 |  |  |  |
| C=C1CC[C@@H]2C(=C)CC[C@H]3[C@@H](OC(=O)[C@H]3CN(C)C)[C@H]12 [DHLC-1, Guaia-4(15),10(14)-dien-12-oic acid, 13-(dimethylamino)-6-hydroxy-γ-lactone] | 0.07 ± 0.07 | SI = 121 | 0.64 ± 1.47 | SI = 13.23 | 8.47 ± 1.42 |  |  |  |
| C=C1CC[C@@H]2C(=C)CC[C@H]3[C@@H](OC(=O)[C@H]3CNCC)[C@H]12 [DHLC-3, Guaia-4(15),10(14)-dien-12-oic acid, 13-(ethylamino)-6-hydroxy-γ-lactone] |  | SI = 8.33 | 3.25 ± 1.36 | SI = 57.91 | 188.2 ± 1.35 |  |  |  |
| C=C1CC[C@@H]2C(=C)CC[C@H]3[C@@H](OC(=O)[C@H]3CNCCN)[C@H]12 [DHLC-4, 13-ethylenediamine dehydrocostus lactone] | 4.24 ± 1.29 | SI = 34.83 | 2.71 ± 1.3 | SI = 54.50 | 147.7 ± 1.28 |  |  |  |
| C=C1C(=O)O[C@@H]2/C=C(\C)CC/C=C(\C)CC[C@@H]12 [costunolide] |  |  |  |  |  | 7.8 | 7.8 | 14.5 |
